Data reported in patent US6348445B1, “Biologically active peptides with reduced toxicity in animals and a method for preparing same” (priority 1992, dated 2002).
Where two headings read alike, the source gives them in different places. *1 amine or outer side, *2 acyl side, *3 side chain or, on linkers, in order; H or OH if unused. Where a SMILES comes first, the peptide text is derived from it. The star is where a group is joined. X2 = CCCCCCCCCCCCC/C=C/[C@@H](O)[C@H](CO)N*; Ibuprofenoyl = CC(C)Cc1ccc(C(C)C(=O)*)cc1; Myristoyl = CCCCCCCCCCCCCC(=O)*; Suc = O=C(CCC(=O)[*:2])[*:1]; Heptanoyl = CCCCCCC(=O)*; Octanoyl = CCCCCCCC(=O)*; Hexanoyl = CCCCCC(=O)*

What was measured:
Type in all cases: cell-based
[1] = test system: P. aeruginosa strain ATCC 27853; conditions: ATCC 27853
Description: (§1) Table I, which follows, indicates the Minimal Inhibitory Concentration (MIC) in […] of various peptides against S.aureus strain ATCC 25923(S), P. aeruginosa strain ATCC 27853(P), E. coli ATCC strain 25922(E), and C. 4albicans (CA). […] The peptides are unsubstituted at the N-terminal; substituted with an acetyl group at the N-terminal, as indicated by Ac-; substituted with an octanoyl group at the N-terminal, as indicated by Oct-; substituted with spinogosine, as indicated by Sph-; substituted with a succinyl group, as indicated by Suc-; substituted with a hexanoyl group, as indicated by Hex-; substituted with a heptanoyl group, as indicated by Hep-; substituted with a valeryl group, as indicated by Val-; substituted with a myristryl group, as indicated by Myr-; or substituted with an ibuprofyl group, as indicated by Ibu-;
(§2) The procedure for the anti-bacterial assay is based upon the guidelines of the National Committee for Clinical Laboratory Standards, Document M7-T2, Volume 8, No. 8, 1988, which document is entirely incorporated herein by reference.
(§3) Stock solutions of peptides, with and without the appropriate substitutions, were prepared at a concentration of 512 μg/ml in sterile deionized distilled water and stored at −70° C.
(§4) The stock peptide solution was diluted in serial dilutions (1:2) down the wells of a microtiter plate so that the final concentrations of peptides in the wells were 0.25, 0.50, 1, 2, 4, 8, 16, 32, 64, 128 and 256 μg/ml. 1-5×10^5 CFUs/ml of either S. aureus ATCC 25923, E. coli ATCC 25922, P. aeruginosa ATCC 27853, or C. albicans, were added to the wells in full strength Mueller Hinton broth (BBL 11443) from a mid-log culture. The inoculum was standardized spectrophotometrically at 600 nm and was verified by colony counts. The plates were incubated for 16-20 hours at 37° C., and the minimal inhibitory concentration (MIC) for each peptide was determined. Minimal inhibitory concentration is defined as the lowest concentration of peptide which produces a clear well in the microtiter plate. The minimal inhibitory concentration of each of the peptides with and/or without the appropriate substitutions is given in Table I below.
(§5) The in vitro anti-microbial activities of the methane sulfonate derivatives were determined according to the methods described in Examples 1 and 2. The activities against ATCC strains of S. aureus, E. coli, P. aeruginosa, and C. albicans, and the hemolysis of red blood cells were compared to the parent compound (Table IV). The activities for Compound 843 (Oct-SEQ ID NO:143) methane sulfonate against clinical strains of P. aeruginosa isolated from cystic fibrosis patients were compared to the parent compound (Table V). The activity for Compound 469 (Oct-SEQ ID NO:27) methane sulfonate against P. gingivalis was compared to the parent compound (Table VI).

C. albicans = test system: C. albicans
Description: as §1, §2, §3, §4

[2] = test system: E. coli ATCC strain 25922; experiment: Minimal Inhibitory Concentration, microtiter broth dilution
Description: as §1, §2, §3, §4, §5

| Compound | Minimal Inhibitory Concentration P [1] | Minimal Inhibitory Concentration CA (C. albicans) [µg/mL] | Minimal Inhibitory Concentration E ([2]; ATCC strain 25922) | Minimal Inhibitory Concentration CA (C. albicans; C. albicans, Table I) | Minimal Inhibitory Concentration E ([2]; E. coli ATCC strain 25922, Table I) |
| --- | --- | --- | --- | --- | --- |
| CCCCCCC(=O)N[C@@H](CC(C)C)C(=O)N[C@@H](CCCCN)C(=O)N[C@@H](CCCCN)C(=O)N[C@@H](CC(C)C)C(=O)N[C@@H](CC(C)C)C(=O)N[C@@H](CCCCN)C(=O)N[C@@H](CCCCN)C(=O)N[C@@H](CC(C)C)C(=O)N[C@@H](CCCCN)C(=O)N[C@@H](CCCCN)C(=O)N[C@@H](CC(C)C)C(N)=O [Hep-(SEQ ID NO: 110)-NH2] (Heptanoyl-LKKLLKKLKKL-NH2) | 4 µg/mL | 32 | 16 µg/mL | – | – |
| CCCCCC(=O)N[C@@H](CC(C)C)C(=O)N[C@@H](CCCCN)C(=O)N[C@@H](CCCCN)C(=O)N[C@@H](CC(C)C)C(=O)N[C@@H](CC(C)C)C(=O)N[C@@H](CCCCN)C(=O)N[C@@H](CCCCN)C(=O)N[C@@H](CC(C)C)C(=O)N[C@@H](CCCCN)C(=O)N[C@@H](CCCCN)C(=O)N[C@@H](CC(C)C)C(N)=O [Hex-(SEQ ID NO: 110)-NH2] (Hexanoyl-LKKLLKKLKKL-NH2) | 8 µg/mL | 64 | 16 µg/mL | – | – |
| CCCCCC(=O)N[C@H](C(=O)N[C@@H](C)C(=O)NCC(=O)N[C@@H](C)C(=O)N[C@H](C(=O)N[C@@H](C)C(=O)N[C@@H](CCCCN)C(=O)N[C@H](C(=O)N[C@@H](C)C(=O)NCC(=O)N[C@@H](CCCCN)C(=O)N[C@H](C(=O)N[C@@H](C)C(=O)N[C@@H](CCCCN)C(=O)N[C@H](C(=O)N[C@@H](C)C(=O)NCC(=O)N[C@@H](C)C(=O)N[C@H](C(=O)N[C@@H](C)C(N)=O)[C@@H](C)CC)[C@@H](C)CC)[C@@H](C)CC)[C@@H](C)CC)[C@@H](C)CC)[C@@H](C)CC [Hex-(SEQ ID NO: 150)-NH2] (Hexanoyl-IAGAIAKIAGKIAKIAGAIA-NH2) | 128 µg/mL | 128 | 32 µg/mL | – | – |
| CC[C@H](C)[C@H](NC(=O)[C@H](CCCCN)NC(=O)CNC(=O)[C@H](C)NC(=O)[C@@H](NC(=O)[C@H](CCCCN)NC(=O)[C@H](C)NC(=O)[C@@H](NC(=O)[C@H](CCCCN)NC(=O)CNC(=O)[C@H](C)NC(=O)[C@@H](NC(=O)[C@H](CCCCN)NC(=O)[C@H](C)NC(=O)[C@@H](NC(=O)[C@H](CCCCN)NC(=O)CNC(=O)[C@H](C)NC(=O)[C@@H](NC(=O)[C@H](CCCCN)NC(=O)C(C)c1ccc(CC(C)C)cc1)[C@@H](C)CC)[C@@H](C)CC)[C@@H](C)CC)[C@@H](C)CC)[C@@H](C)CC)C(=O)N[C@@H](C)C(N)=O (some centres unmarked) [Ibu-(SEQ ID NO: 27)-NH2] (Ibuprofenoyl-KIAGKIAKIAGKIAKIAGKIA-NH2) | 4 µg/mL | 128 | 8 µg/mL | – | – |
| CCCCCCCCCCCCCC(=O)N[C@@H](CC(C)C)C(=O)N[C@@H](CCCCN)C(=O)N[C@@H](CCCCN)C(=O)N[C@@H](CC(C)C)C(=O)N[C@@H](CC(C)C)C(=O)N[C@@H](CCCCN)C(=O)N[C@@H](CCCCN)C(=O)N[C@@H](CC(C)C)C(=O)N[C@@H](CCCCN)C(=O)N[C@@H](CCCCN)C(=O)N[C@@H](CC(C)C)C(N)=O [Myr-(SEQ ID NO: 110)-NH2] (Myristoyl-LKKLLKKLKKL-NH2) | 16 µg/mL | >256 | 16 µg/mL | – | – |
| CCCCCCCCCCCCCC(=O)N[C@@H](CC(C)C)C(=O)N[C@@H](CCCCN)C(=O)N[C@@H](CCCCN)C(=O)N[C@@H](CC(C)C)C(=O)N[C@@H](CC(C)C)C(=O)N[C@@H](CCCCN)C(=O)N[C@@H](CCC(=O)O)C(=O)N[C@@H](CC(C)C)C(=O)N[C@@H](CC(C)C)C(=O)N[C@@H](CCCCN)C(=O)N[C@@H](CC(C)C)C(N)=O [Myr-(SEQ ID NO: 151)-NH2] (Myristoyl-LKKLLKELLKL-NH2) | 128 µg/mL | >256 | 64 µg/mL | – | – |
| CCCCCCCC(=O)N[C@@H](CC(C)C)C(=O)N[C@@H](CCCCN)C(=O)N[C@@H](CCCCN)C(=O)N[C@@H](CC(C)C)C(=O)N[C@@H](CCCCN)C(=O)N[C@@H](CCCCN)C(=O)N[C@@H](CC(C)C)C(N)=O [Oct-(SEQ ID NO: 106)-NH2] (Octanoyl-LKKLKKL-NH2) | 32,64 μg/ml | – | 128 µg/mL | 64,128 μg/ml | – |
| CCCCCCCC(=O)N[C@@H](CC(C)C)C(=O)N[C@@H](CC(C)C)C(=O)N[C@@H](CCCCN)C(=O)N[C@@H](CCCCN)C(=O)N[C@@H](CC(C)C)C(=O)N[C@@H](CCCCN)C(=O)N[C@@H](CCCCN)C(=O)N[C@@H](CC(C)C)C(N)=O [Oct-(SEQ ID NO: 107)-NH2] (Octanoyl-LLKKLKKL-NH2) | 256 µg/mL | 128 | >256 µg/mL | – | – |
| CCCCCCCC(=O)N[C@@H](CCCCN)C(=O)N[C@@H](CC(C)C)C(=O)N[C@@H](CC(C)C)C(=O)N[C@@H](CCCCN)C(=O)N[C@@H](CCCCN)C(=O)N[C@@H](CC(C)C)C(=O)N[C@@H](CCCCN)C(=O)N[C@@H](CCCCN)C(=O)N[C@@H](CC(C)C)C(N)=O [Oct-(SEQ ID NO: 108)-NH2] (Octanoyl-KLLKKLKKL-NH2) | 4 µg/mL | 64 | 64 µg/mL | – | – |
| CCCCCCCCCCCCC/C=C/[C@@H](O)[C@H](CO)NC(=O)CCC(=O)N[C@@H](CCCCN)C(=O)N[C@H](C(=O)N[C@@H](C)C(=O)NCC(=O)N[C@@H](CCCCN)C(=O)N[C@H](C(=O)N[C@@H](C)C(=O)N[C@@H](CCCCN)C(=O)N[C@H](C(=O)N[C@@H](C)C(=O)NCC(=O)N[C@@H](CCCCN)C(=O)N[C@H](C(=O)N[C@@H](C)C(=O)N[C@@H](CCCCN)C(=O)N[C@H](C(=O)N[C@@H](C)C(=O)NCC(=O)N[C@@H](CCCCN)C(=O)N[C@H](C(=O)N[C@@H](C)C(N)=O)[C@@H](C)CC)[C@@H](C)CC)[C@@H](C)CC)[C@@H](C)CC)[C@@H](C)CC)[C@@H](C)CC [Sph-Suc-(SEQ ID NO: 27)-NH2] ({X2-Suc}-KIAGKIAKIAGKIAKIAGKIA-NH2) | >256 µg/mL | – | 32 µg/mL | – | – |
| Ac-KIAGKIAKIAGKIAKIAGKIA-NH2 [Ac-(SEQ ID NO: 27)-NH2] | 128 µg/mL | – | 8 µg/mL | – | – |
| Ac-LKKLLKKLKKL-NH2 [Ac-(SEQ ID NO: 110)-NH2] | 8,16 μg/ml | – | 32,64 μg/ml | – | – |
| Ac-LLKKLKKLLKKL-NH2 [Ac-(SEQ ID NO: 113)-NH2] | 64 µg/mL | – | 64 µg/mL | – | – |
| H-KIAGKIAKIAGKIAKIAGKIA-OH [(SEQ ID NO: 27)-OH, (Lys Ile Ala Gly Lys Ile Ala)3] | 128 µg/mL | – | 8 µg/mL | – | – |
| H-LKKLLKKLKKL-NH2 [(SEQ ID NO: 110)-NH2] | 32,64 μg/ml | – | – | – | 64,128 μg/ml |
| H-LLKKLKKLLKKL-NH2 [(SEQ ID NO: 113)-NH2] | 8,16 μg/ml | – | 32 µg/mL | – | – |
